Reference: the NIST ThermoML archive (doi:10.1021/je0499364)
± gives the expanded uncertainty stated by the source.

Legend:
[1] = Crystal
[2] = Molar enthalpy of transition or fusion; details: Crystal
[3] = molar heat capacity at constant pressure; details: 101.33 kPa

CCCCCCCCCCCCCCCC(=O)OC [methyl hexadecanoate]
Details	Triple point temperature [K]
[1], Adiabatic calorimetry	302.71 ± 0.16

Details	Molar enthalpy of transition or fusion [kcal/mol]
[2]	14.35 ± 0.127

[3]
Details	molar heat capacity at constant pressure [J/K/mol]
5 K, Crystal	0.66 ± 0.04
10 K, Crystal	5.56 ± 0.11
20 K, Crystal	23.7 ± 0.29
30 K, Crystal	47.98 ± 0.28
40 K, Crystal	75.87 ± 0.39
50 K, Crystal	104.12 ± 0.5
60 K, Crystal	129.69 ± 0.6
70 K, Crystal	151.19 ± 0.69
80 K, Crystal	167.13 ± 0.75
90 K, Crystal	184.19 ± 0.77
100 K, Crystal	198.32 ± 0.8
110 K, Crystal	213.49 ± 0.83
120 K, Crystal	226.5 ± 0.85
130 K, Crystal	238.62 ± 0.88
140 K, Crystal	250.27 ± 0.9
150 K, Crystal	261.54 ± 0.92
160 K, Crystal	272.73 ± 0.95
170 K, Crystal	284.03 ± 0.97
180 K, Crystal	295.27 ± 0.99
190 K, Crystal	306.8 ± 1
200 K, Crystal	318.65 ± 1
210 K, Crystal	330.97 ± 1.1
220 K, Crystal	343.93 ± 1.1
230 K, Crystal	357.74 ± 1.1
240 K, Crystal	372.37 ± 1.1
250 K, Crystal	388.24 ± 1.2
260 K, Crystal	405.39 ± 1.2
270 K, Crystal	423.81 ± 1.2
280 K, Crystal	448.6 ± 1.3
290 K, Crystal	482.7 ± 1.4
300 K, Crystal	740.48 ± 1.9
310 K, Liquid	570.55 ± 1.5
320 K, Liquid	576.47 ± 1.6
330 K, Liquid	583.02 ± 1.6
340 K, Liquid	590.14 ± 1.6
350 K, Liquid	597.66 ± 1.6

CCCCCCCCCCCCCCCCCCC(=O)OC [methyl nonadecanoate]
Details	Molar enthalpy of transition or fusion [kcal/mol]	Triple point temperature [K]
[1]	–	311.49 ± 0.16
[2]	16.95 ± 0.129	–

[3]
Details	molar heat capacity at constant pressure [J/K/mol]
5 K, Crystal	0.69 ± 0.04
10 K, Crystal	5.1 ± 0.11
20 K, Crystal	26.27 ± 0.32
30 K, Crystal	55.13 ± 0.31
40 K, Crystal	87.37 ± 0.43
50 K, Crystal	117.8 ± 0.55
60 K, Crystal	143.77 ± 0.66
70 K, Crystal	168.98 ± 0.76
80 K, Crystal	190.79 ± 0.84
90 K, Crystal	210.18 ± 0.82
100 K, Crystal	228.66 ± 0.86
110 K, Crystal	244.31 ± 0.89
120 K, Crystal	259.07 ± 0.92
130 K, Crystal	273.22 ± 0.95
140 K, Crystal	286.84 ± 0.97
150 K, Crystal	300.17 ± 1
160 K, Crystal	313.53 ± 1
170 K, Crystal	327.31 ± 1.1
180 K, Crystal	339.52 ± 1.1
190 K, Crystal	353.2 ± 1.1
200 K, Crystal	367.35 ± 1.1
210 K, Crystal	380.94 ± 1.2
220 K, Crystal	397.52 ± 1.2
230 K, Crystal	413.93 ± 1.2
240 K, Crystal	432.32 ± 1.3
250 K, Crystal	450.65 ± 1.3
260 K, Crystal	469.65 ± 1.3
270 K, Crystal	491.94 ± 1.4
280 K, Crystal	518.01 ± 1.4
290 K, Crystal	549.43 ± 1.5
300 K, Crystal	586.63 ± 1.6
320 K, Liquid	691.61 ± 1.8
330 K, Liquid	677.17 ± 1.8
340 K, Liquid	684.76 ± 1.8
350 K, Liquid	693.78 ± 1.8

CCCCCCCCC(=O)OC [methyl nonanoate]
Details	Molar enthalpy of transition or fusion [kcal/mol]	Triple point temperature [K]
[1]	–	238.72 ± 0.16
[2]	6.53 ± 0.122	–

[3]
Details	molar heat capacity at constant pressure [J/K/mol]
5 K, Crystal	0.39 ± 0.03
10 K, Crystal	2.96 ± 0.07
20 K, Crystal	17.17 ± 0.21
30 K, Crystal	34.66 ± 0.22
40 K, Crystal	53.39 ± 0.3
50 K, Crystal	71.31 ± 0.37
60 K, Crystal	86.46 ± 0.43
70 K, Crystal	100.55 ± 0.48
80 K, Crystal	113.08 ± 0.53
90 K, Crystal	123.98 ± 0.65
100 K, Crystal	134.32 ± 0.67
110 K, Crystal	143.79 ± 0.69
120 K, Crystal	152.28 ± 0.7
130 K, Crystal	160.47 ± 0.72
140 K, Crystal	168.48 ± 0.74
150 K, Crystal	175.96 ± 0.75
160 K, Crystal	183.23 ± 0.77
170 K, Crystal	190.85 ± 0.78
180 K, Crystal	198.49 ± 0.8
190 K, Crystal	206.56 ± 0.81
200 K, Crystal	215.27 ± 0.83
210 K, Crystal	224.62 ± 0.85
220 K, Crystal	236.53 ± 0.87
230 K, Crystal	265.31 ± 0.93
240 K, Liquid	330.8 ± 1.1
250 K, Liquid	330.84 ± 1.1
260 K, Liquid	333.42 ± 1.1
270 K, Liquid	335.9 ± 1.1
280 K, Liquid	338.72 ± 1.1
290 K, Liquid	342.82 ± 1.1
300 K, Liquid	346.27 ± 1.1
310 K, Liquid	350.79 ± 1.1
320 K, Liquid	354.3 ± 1.1
330 K, Liquid	359.1 ± 1.1
340 K, Liquid	363.82 ± 1.1
350 K, Liquid	368.16 ± 1.1
